Assay results published in patent US20080248511A1, “METHODS TO QUENCH LIGHT FROM OPTICAL REACTIONS” (priority 2007, published 2008).
Like-named read-outs stand apart in the source and are kept apart here.

Key:
firefly luciferase [1] = molecular target: T1, firefly luciferase (Photinus pyralis, UniProt P08659); test: biochemical; settings: for remaining activity at 0.5 %: read-out: Retained Firefly Luciferase Luminescence (%)
Procedure: (§1) The retained luminescence for each luciferase was calculated by dividing the luminescence in the presence of the detergent by the luminescence in the absence of the test detergent. The selectivity value for each of the test detergents was determined by dividing the retained firefly luciferase luminescence by the retained Renilla luciferase luminescence.
(§2) A set of detergents (Table 2; Sigma-Aldrich) was added at 0.5% (from a 5% or 10% stock solution) to either Luciferase Assay Reagent (Promega) or Renilla Luciferase Assay Reagent (Promega) and allowed to equilibrate at room temperature.
(§3) The firefly luciferase and Renilla luciferase enzymes were diluted as follows. Firefly luciferase was diluted to 14 ng/ml in Phosphate Buffered Saline (PBS) containing 0.1% of the protein carrier Prionex® (Pentapharm). Renilla luciferase was diluted to 10 ng/ml in 1× Renilla Luciferase Lysis Buffer (Promega) containing 0.1% Prionex®. The Renilla Luciferase Lysis Buffer […] detergent micelles when using the Renilla Luciferase Assay Reagent. In the absence of other detergents, this prevents sequestering of coelenterazine which inhibits Renilla luciferase-mediated luminescence.
(§4) The luciferase reactions were initiated by adding 40 μl of either the firefly or Renilla luciferase enzyme solution to 200 μl of the appropriate reagent solution (firefly luciferase enzyme solution+firefly luciferase reagent solution or Renilla luciferase enzyme solution+Renilla luciferase reagent solution, respectively). The reactions were performed in an opaque white, 96-well plate and luminescence was measured for 0.5 seconds per well using a Turner BioSystems Veritas™ Microplate luminometer. The retained firefly luciferase and Renilla luciferase luminescence, as well as the selectivity values for each detergent, were calculated (Table 2).

Renilla luciferase [2] = molecular target: T2, Renilla luciferase (Renilla reniformis, UniProt P27652); test: biochemical; type: biochemical; settings: for remaining activity at 0.5 %: read-out: Retained Renilla Luciferase Luminescence (%)
T2 sequence (P27652 1-311): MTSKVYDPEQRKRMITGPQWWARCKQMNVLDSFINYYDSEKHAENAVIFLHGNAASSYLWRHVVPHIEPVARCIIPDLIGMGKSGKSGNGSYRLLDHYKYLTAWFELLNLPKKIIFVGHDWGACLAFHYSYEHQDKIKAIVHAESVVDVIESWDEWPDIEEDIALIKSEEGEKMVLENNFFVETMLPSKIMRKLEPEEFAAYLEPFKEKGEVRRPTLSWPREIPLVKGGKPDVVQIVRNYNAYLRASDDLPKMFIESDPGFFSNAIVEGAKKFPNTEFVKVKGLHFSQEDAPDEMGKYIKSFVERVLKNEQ
Procedure: as §1, §2, §3, §4

Renilla luciferase [3] = molecular target: T2, Renilla luciferase; test: Quaternary ammonium/phosphonium detergent screen, Renilla luciferase (Example 5); type: biochemical; settings: for Retained Renilla Luciferase Luminescence (%) / remaining activity at 0.1 %: Tergitol NP-9 present
Procedure: (§5) Each detergent was added at 0.2% to a reagent solution containing 50 mM Tricine pH 8.3, 3.5 mM MgSO4, 1 mM CDTA, 30 mM thiourea and 0.5% Tergitol NP-9. This solution or one not containing a detergent inhibitor was used to resuspend the Bright-Glo™ luciferin substrate (Promega).
(§6) The luciferase reactions were initiated by adding 100 μl of the firefly luciferase or Renilla luciferase enzyme solutions to 100 μl of reagent solution. The reactions were performed as described above. […] The detergent concentrations listed refer to the final concentration in the reaction.

Renilla luciferase [4] = molecular target: T2, Renilla luciferase; test: as above; type: biochemical; settings: final conc. 0.03% detergent; for Retained Renilla Luciferase Luminescence (%) / remaining activity at 0.03 %: Tergitol NP-9 present; for remaining activity at 0.03 %: read-out: Retained Renilla Luciferase Luminescence (%)
firefly luciferase [5] = molecular target: T1, firefly luciferase; test: Quaternary ammonium/phosphonium detergent screen, firefly luciferase (Example 5); type: biochemical; settings: final conc. 0.03% detergent, Tergitol NP-9 present; for remaining activity at 0.03 %: read-out: Retained Firefly Luciferase Luminescence (%)
firefly luciferase [6] = molecular target: T1, firefly luciferase; test: as above; type: biochemical; settings: Tergitol NP-9 present
Procedure: as §5, §6

[7] = retained firefly / retained Renilla, 0.5% detergent
[8] = 0.5% detergent in Luciferase Assay Reagent
[9] = 0.5% detergent in Renilla Luciferase Assay Reagent
[10] = read-out: Retained Renilla Luciferase Luminescence (%), final conc. 0.10% detergent
[11] = read-out: Retained Firefly Luciferase Luminescence (%), final conc. 0.10% detergent
[12] = final conc. 0.10% detergent, read-out: Retained Renilla Luciferase Luminescence (%)
[13] = final conc. 0.10% detergent, read-out: Retained Firefly Luciferase Luminescence (%)

T1 sequence (P08659 whole entry): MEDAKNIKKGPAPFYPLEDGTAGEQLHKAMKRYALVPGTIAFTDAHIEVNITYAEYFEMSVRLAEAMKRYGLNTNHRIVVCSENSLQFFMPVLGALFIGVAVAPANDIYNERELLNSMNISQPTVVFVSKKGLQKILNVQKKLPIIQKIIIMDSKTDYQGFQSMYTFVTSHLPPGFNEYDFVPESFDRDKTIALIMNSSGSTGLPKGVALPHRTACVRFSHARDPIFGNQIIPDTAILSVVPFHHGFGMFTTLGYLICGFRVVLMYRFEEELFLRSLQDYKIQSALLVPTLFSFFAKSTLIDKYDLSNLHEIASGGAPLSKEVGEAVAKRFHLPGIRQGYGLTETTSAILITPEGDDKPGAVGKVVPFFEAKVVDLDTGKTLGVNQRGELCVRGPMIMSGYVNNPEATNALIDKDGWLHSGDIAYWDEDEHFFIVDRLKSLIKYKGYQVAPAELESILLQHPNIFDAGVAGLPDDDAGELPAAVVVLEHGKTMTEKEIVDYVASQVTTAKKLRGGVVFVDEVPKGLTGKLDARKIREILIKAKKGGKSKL

For C[N+](C)(C)CCBr.[Br-] [(2-Bromoethyl)trimethylammonium bromide], the remaining activity at 0.5 % (firefly luciferase [1]) was 91.4%, the remaining activity at 0.5 % (Renilla luciferase [2]) was 78.4% and the “Selectivity Value” (Renilla luciferase [2]; [7]) was 1.2.
In the case of C[N+](C)(C)CCCBr.[Br-] [(3-Bromopropyl)trimethylammonium bromide], the remaining activity at 0.5 % (firefly luciferase [1]; [8]) is reported as 72.2%, the remaining activity at 0.5 % (Renilla luciferase [2]; [9]) is reported as 71.6% and the “Selectivity Value” (Renilla luciferase [2]; [7]) is reported as 1.0.
For C[N+](C)(C)CCCCCBr.[Br-] [(5-Bromopentyl)trimethylammonium bromide], the remaining activity at 0.5 % (firefly luciferase [1]; [8]) was 79.1%, the remaining activity at 0.5 % (Renilla luciferase [2]; [9]) was 75% and the “Selectivity Value” (Renilla luciferase [2]; [7]) was 1.1.
In the case of C[N+](C)(Cc1ccccc1)c1ccccc1.[Cl-] [Benzyldimethylphenylammonium chloride], the “Selectivity Value” (Renilla luciferase [3]; final conc. 0.10% detergent) is reported as 4.6, the “Retained Renilla Luciferase Luminescence (%)” value (Renilla luciferase [3]; final conc. 0.10% detergent) is reported as 12% and the “Selectivity Value” (Renilla luciferase [4]) is reported as 2.2. For the same compound, the “Retained Renilla Luciferase Luminescence (%)” value (Renilla luciferase [4]) was 38%, the remaining activity at 0.03 % (firefly luciferase [5]) was 82% and the “Retained Firefly Luciferase Luminescence (%)” value (firefly luciferase [6]; final conc. 0.10% detergent) was 55%.
For CC[N+](CC)(CC)Cc1ccccc1.[Br-] [Benzyltriethylammonium bromide], the “Selectivity Value” (Renilla luciferase [3]; final conc. 0.10% detergent) was 0.9, the remaining activity at 0.1 % (Renilla luciferase [3]; [10]) was 87% and the “Selectivity Value” (Renilla luciferase [4]) was 1.0. For the same compound, the remaining activity at 0.03 % (Renilla luciferase [4]) was 95%, the remaining activity at 0.03 % (firefly luciferase [5]) was 97% and the remaining activity at 0.1 % (firefly luciferase [6]; [11]) was 100%.
CC[P+](CC)(CC)Cc1ccccc1.[Br-] [Benzyltriethylphosphonium bromide] was tested, and the “Selectivity Value” (Renilla luciferase [3]; final conc. 0.10% detergent) was 2.0, the remaining activity at 0.1 % (Renilla luciferase [3]; [12]) was 51% and the “Selectivity Value” (Renilla luciferase [4]) was 1.1. The remaining activity at 0.03 % (Renilla luciferase [4]) was 88%, the remaining activity at 0.03 % (firefly luciferase [5]) was 97% and the remaining activity at 0.1 % (firefly luciferase [6]; [13]) was 102%.
For C[N+](C)(C)Cc1ccccc1.[Br-] [Benzyltrimethylammonium bromide], the “Selectivity Value” (Renilla luciferase [3]; final conc. 0.10% detergent) was 1.0, the remaining activity at 0.1 % (Renilla luciferase [3]; [10]) was 87% and the “Selectivity Value” (Renilla luciferase [4]) was 1.0. It also gave a remaining activity at 0.03 % (Renilla luciferase [4]) of 95%, a remaining activity at 0.03 % (firefly luciferase [5]) of 99% and a remaining activity at 0.1 % (firefly luciferase [6]; [11]) of 100%.
For C[N+](C)(C)Cc1ccccc1.[I-] [Bezyltrimethylammonium iodide], the “Selectivity Value” (Renilla luciferase [3]; final conc. 0.10% detergent) was 0.6, the “Retained Renilla Luciferase Luminescence (%)” value (Renilla luciferase [3]; final conc. 0.10% detergent) was 97% and the “Selectivity Value” (Renilla luciferase [4]) was 0.8. For the same compound, the “Retained Renilla Luciferase Luminescence (%)” value (Renilla luciferase [4]) was 93%, the “Retained Firefly Luciferase Luminescence (%)” value (firefly luciferase [5]) was 76% and the “Retained Firefly Luciferase Luminescence (%)” value (firefly luciferase [6]; final conc. 0.10% detergent) was 62%.
C[C@H](CCC(=O)NCCC[N+](C)(C)CC(O)CS(=O)(=O)[O-])[C@H]1CC[C@H]2[C@@H]3[C@H](O)C[C@@H]4C[C@H](O)CC[C@]4(C)[C@H]3C[C@H](O)[C@]12C (stereo partly drawn) [CHAPSO] was tested, and the “Retained Firefly Luciferase Luminescence (%)” value (firefly luciferase [1]; [8]) was 70.07%, the “Retained Renilla Luciferase Luminescence (%)” value (Renilla luciferase [2]; [9]) was 52.15% and the “Selectivity Value” (Renilla luciferase [2]; [7]) was 1.3.
C[C@H](CCC(=O)NCCC[N+](C)(C)CCCS(=O)(=O)[O-])[C@H]1CC[C@H]2[C@@H]3[C@H](O)C[C@@H]4C[C@H](O)CC[C@]4(C)[C@H]3C[C@H](O)[C@]12C [CHAPS] was tested, and the “Retained Firefly Luciferase Luminescence (%)” value (firefly luciferase [1]; [8]) was 73.84%, the “Retained Renilla Luciferase Luminescence (%)” value (Renilla luciferase [2]; [9]) was 47.29% and the “Selectivity Value” (Renilla luciferase [2]; [7]) was 1.6.
For C[P+](C)(Cc1ccc([N+](=O)[O-])cc1)c1ccccc1.[Br-] [Dimethyl(4-nitrobenzyl)phenylphosphonium bromide], the “Selectivity Value” (Renilla luciferase [3]; final conc. 0.10% detergent) was 2.2, the remaining activity at 0.1 % (Renilla luciferase [3]; [12]) was 49% and the “Selectivity Value” (Renilla luciferase [4]) was 1.3. The remaining activity at 0.03 % (Renilla luciferase [4]) was 78%, the remaining activity at 0.03 % (firefly luciferase [5]) was 99% and the remaining activity at 0.1 % (firefly luciferase [6]; [13]) was 106%.
With CC[N+](C)(C)c1cccc(O)c1 [Edrophonium chloride] the “Selectivity Value” (Renilla luciferase [3]; final conc. 0.10% detergent) was 1.1, the remaining activity at 0.1 % (Renilla luciferase [3]; [12]) was 89% and the “Selectivity Value” (Renilla luciferase [4]) was 1.0. The remaining activity at 0.03 % (Renilla luciferase [4]) was 93%, the remaining activity at 0.03 % (firefly luciferase [5]) was 98% and the remaining activity at 0.1 % (firefly luciferase [6]; [13]) was 102%.
C[N+](C)(C)CCCCCC[N+](C)(C)C [Hexamethonium bromide] was tested, and the remaining activity at 0.5 % (firefly luciferase [1]; [8]) was 96%, the remaining activity at 0.5 % (Renilla luciferase [2]; [9]) was 91% and the “Selectivity Value” (Renilla luciferase [2]; [7]) was 1.1.
For C=C(C)[P+](C)(c1ccccc1)c1ccccc1.[I-] [Isopropenylmethyldiphenylphosphonium iodide], the “Selectivity Value” (Renilla luciferase [3]; final conc. 0.10% detergent) was 2.1, the remaining activity at 0.1 % (Renilla luciferase [3]; [12]) was 51% and the “Selectivity Value” (Renilla luciferase [4]) was 1.2. For the same compound, the remaining activity at 0.03 % (Renilla luciferase [4]) was 82%, the remaining activity at 0.03 % (firefly luciferase [5]) was 95% and the remaining activity at 0.1 % (firefly luciferase [6]; [13]) was 109%.
With C[C@H](CCC(=O)NCCS(=O)(=O)O)[C@H]1CC[C@H]2[C@@H]3CC[C@@H]4C[C@H](O)CC[C@]4(C)[C@H]3CC[C@]12C [Taurolithocholic acid] the remaining activity at 0.5 % (firefly luciferase [1]; [8]) was 81.3%, the remaining activity at 0.5 % (Renilla luciferase [2]; [9]) was 75% and the “Selectivity Value” (Renilla luciferase [2]; [7]) was 1.1.
In the case of CCCCCCCC[N+](CCCCCCCC)(CCCCCCCC)CCCCCCCC.[Br-] [Tetraoctylammonium bromide], the remaining activity at 0.5 % (firefly luciferase [1]; [8]) is reported as 43.7%, the remaining activity at 0.5 % (Renilla luciferase [2]; [9]) is reported as 43.1% and the “Selectivity Value” (Renilla luciferase [2]; [7]) is reported as 1.0.
[Br-].c1ccc([P+](c2ccccc2)(c2ccccc2)c2ccccc2)cc1 [Tetraphenylphosphonium bromide] was tested, and the remaining activity at 0.5 % (firefly luciferase [1]; [8]) was 90.9%, the remaining activity at 0.5 % (Renilla luciferase [2]; [9]) was 24.5% and the “Selectivity Value” (Renilla luciferase [2]; [7]) was 3.7.
For CCCCCCCCCC[N+](C)(C)CCCS(=O)(=O)[O-] [Zwittergent 3-10], the “Retained Firefly Luciferase Luminescence (%)” value (firefly luciferase [1]; [8]) was 73.92%, the “Retained Renilla Luciferase Luminescence (%)” value (Renilla luciferase [2]; [9]) was 33.45% and the “Selectivity Value” (Renilla luciferase [2]; [7]) was 2.2.
For “(−)-N-dodecyl-N-methyl ephedrium bromide”, the “Selectivity Value” (Renilla luciferase [3]; final conc. 0.10% detergent) was 102.1, the “Retained Renilla Luciferase Luminescence (%)” value (Renilla luciferase [3]; final conc. 0.10% detergent) was 1% and the “Selectivity Value” (Renilla luciferase [4]) was 7.1. The “Retained Renilla Luciferase Luminescence (%)” value (Renilla luciferase [4]) was 15%, the “Retained Firefly Luciferase Luminescence (%)” value (firefly luciferase [5]) was 106% and the “Retained Firefly Luciferase Luminescence (%)” value (firefly luciferase [6]; final conc. 0.10% detergent) was 102%.
Benzalkonium was tested, and the “Retained Firefly Luciferase Luminescence (%)” value (firefly luciferase [1]; [8]) was 0.20%, the “Retained Renilla Luciferase Luminescence (%)” value (Renilla luciferase [2]; [9]) was 0.04% and the “Selectivity Value” (Renilla luciferase [2]; [7]) was 5.0.
Decamthonium bromide was tested, and the “Retained Firefly Luciferase Luminescence (%)” value (firefly luciferase [1]; [8]) was 85.42%, the “Retained Renilla Luciferase Luminescence (%)” value (Renilla luciferase [2]; [9]) was 76.68% and the “Selectivity Value” (Renilla luciferase [2]; [7]) was 1.1.
In the case of Sodium deoxycholate, the “Retained Firefly Luciferase Luminescence (%)” value (firefly luciferase [1]; [8]) is reported as 39.75%, the “Retained Renilla Luciferase Luminescence (%)” value (Renilla luciferase [2]; [9]) is reported as 60.64% and the “Selectivity Value” (Renilla luciferase [2]; [7]) is reported as 0.7.
With Tergitol NP-9 the “Retained Firefly Luciferase Luminescence (%)” value (firefly luciferase [1]; [8]) was 79.16%, the “Retained Renilla Luciferase Luminescence (%)” value (Renilla luciferase [2]) was 27.14% and the “Selectivity Value” (Renilla luciferase [2]) was 2.9.
In the case of s-Acetylthiochloline bromide, the “Retained Firefly Luciferase Luminescence (%)” value (firefly luciferase [1]; [8]) is reported as 70.97%, the “Retained Renilla Luciferase Luminescence (%)” value (Renilla luciferase [2]; [9]) is reported as 90.65% and the “Selectivity Value” (Renilla luciferase [2]; [7]) is reported as 0.8.
